Reference: ChEMBL document CHEMBL5113408, “Design, synthesis and antitumour activity of novel 5(6)-amino-benzimidazolequinones containing a fused morpholine” (Eur J Med Chem, 2022)
pIC50: −log10 of the molar value. The source made the active and inactive calls. No cut-off for these calls is given here.

Key:
MGC-803 [1] = assay: Antiproliferative activity against human MGC-803 cells assessed as inhibition of cell growth incubated for 24 to 72 hrs by SRB assay; assay type: functional, cell-based; details: dose 0.25-8 µM, time 24-72 hrs, DDE = dose-dependent effect
HGC-27 [2] = assay: Antiproliferative activity against human HGC-27 cells assessed as inhibition of cell growth at 0.25 to 8 uM by SRB assay; assay type: functional, cell-based; details: dose 0.25-8 µM, time 24-72 hrs, TDE = time-dependent effect
MGC-803 [3] = assay: Induction of cell cycle arrest in human MGC-803 cells assessed as decrease in p-cdc2 level at 1 to 4 uM by Western blot analysis; assay type: functional, cell-based; details: dose 1-4 µM
HGC-27 [4] = assay: Induction of cell cycle arrest in human HGC-27 cells assessed as decrease in cyclin-B1 level at 1 to 4 uM by Western blot analysis; assay type: functional, cell-based; details: dose 1-4 µM
MGC-803 [5] = assay: Activation of ROS/JNK signalling in human MGC-803 cells assessed as increase in p-ASK1 level by Western blot analysis; assay type: cell-based; details: filed as activator, dose 1-4 µM, DDE = dose-dependent effect
MGC-803 [6] = assay: Induction of cell cycle arrest in human MGC-803 cells assessed as accumulation of cells at G2/M phase at 1 uM incubated for 36 hrs by PI staining based flow cytometry analysis (reference value: 20.5%); assay type: functional
HGC-27 [7] = assay: Induction of apoptosis in human HGC-27 cells incubated for 48 hrs by Annexin-V FITC staining based flow cytometry analysis; assay type: functional, cell-based; details: dose 1-4 µM, DDE = dose-dependent effect
HGC-27 [8] = assay: Induction of apoptosis in human HGC-27 cells incubated for 48 hrs by Annexin V-FITC and PI staining based flow cytometry analysis; assay type: functional
MGC-803 [9] = assay: Induction of cell cycle arrest in human MGC-803 cells assessed as accumulation of cells at G1 phase at 2 uM incubated for 36 hrs by PI staining based flow cytometry analysis (reference value: 45.8%); assay type: functional
MGC-803 [10] = assay: Induction of cell cycle arrest in human MGC-803 cells assessed as accumulation of cells at G1 phase at 1 uM incubated for 36 hrs by PI staining based flow cytometry analysis (reference value: 45.8%); assay type: functional
HGC-27 [11] = assay: Induction of cell cycle arrest in human HGC-27 cells assessed as accumulation of cells at S phase at 1 uM incubated for 36 hrs by PI staining based flow cytometry analysis (reference value: 8.87%); assay type: functional
HGC-27 [12] = assay: Activation of ROS/JNK signalling in human HGC-27 cells assessed as increase in p-ASK1 level by Western blot analysis; assay type: cell-based; details: filed as activator, dose 1-4 µM, DDE = dose-dependent effect
HGC-27 [13] = assay: Induction of apoptosis in human HGC-27 cells assessed as decrease in caspase 9 protein expression level at 1 to 4 uM incubated for 48 hrs by Western blot analysis; assay type: functional, cell-based; details: dose 1-4 µM
HGC-27 [14] = assay: Induction of DNA damage in human HGC-27 cells assessed as increase in gamma-H2AX generation incubated for 24 hrs by immunofluorescence analysis; assay type: functional, cell-based
HGC-27 [15] = assay: Induction of cell cycle arrest in human HGC-27 cells assessed as accumulation of cells at G2/M phase at 4 uM incubated for 36 hrs by PI staining based flow cytometry analysis (reference value: 26.2%); assay type: functional
[16] = Toxicity in BALB/c mouse xenografted with human MGC-803 cells assessed as effect on kidney at 10 to 20 mg/kg, ip administered once every two days measured after 15 days by H and E staining based assay; assay type: organism-based; details: in vivo, 360 h, dose 10-20 mg/kg, time 15 day
HGC-27 [17] = assay: Induction of cell cycle arrest in human HGC-27 cells assessed as accumulation of cells at G2/M phase at 2 uM incubated for 36 hrs by PI staining based flow cytometry analysis (reference value: 26.2%); assay type: functional
HGC-27 [18] = assay: Induction of apoptosis in human HGC-27 cells assessed as decrease in caspase 3 protein expression level at 1 to 4 uM incubated for 48 hrs by Western blot analysis; assay type: functional, cell-based; details: dose 1-4 µM
HGC-27 [19] = assay: Induction of DNA damage in human HGC-27 cells assessed as increase in p-Chk generation incubated for 48 hrs by Western blot analysis; assay type: functional, cell-based; details: DDE = dose-dependent effect
MGC-803 [20] = assay: Antiproliferative activity against human MGC-803 cells assessed as inhibition of cell growth incubated for 72 hrs by SRB assay; assay type: functional, cell-based; details: MGC-803, 72 h
[21] = Antiproliferative activity against human L02 cells assessed as inhibition of cell growth incubated for 72 hrs by SRB assay; assay type: toxicity, cell-based
HGC-27 [22] = assay: Induction of cell cycle arrest in human HGC-27 cells assessed as accumulation of cells at G1 phase at 4 uM incubated for 36 hrs by PI staining based flow cytometry analysis (reference value: 49.6%); assay type: functional
HGC-27 [23] = assay: Induction of cell cycle arrest in human HGC-27 cells assessed as accumulation of cells at G1 phase at 2 uM incubated for 36 hrs by PI staining based flow cytometry analysis (reference value: 49.6%); assay type: functional
HGC-27 [24] = assay: Induction of DNA damage in human HGC-27 cells assessed as appearance of longer comet tail at 4 uM; assay type: functional, cell-based
MGC-803 [25] = assay: Induction of apoptosis in human MGC-803 cells assessed as decrease in caspase 7 protein expression level at 1 to 4 uM incubated for 48 hrs by Western blot analysis; assay type: functional, cell-based; details: dose 1-4 µM
HGC-27 [26] = assay: Induction of DNA damage in human HGC-27 cells assessed as increase in gamma-H2AX generation incubated for 48 hrs by Western blot analysis; assay type: functional, cell-based; details: DDE = dose-dependent effect
MGC-803 [27] = assay: Induction of cell cycle arrest in human MGC-803 cells assessed as accumulation of cells at G1 phase at 4 uM incubated for 36 hrs by PI staining based flow cytometry analysis (reference value: 45.8%); assay type: functional
MGC-803 [28] = assay: Induction of apoptosis in human MGC-803 cells assessed as decrease in caspase 3 protein expression level at 1 to 4 uM incubated for 48 hrs by Western blot analysis; assay type: functional, cell-based; details: dose 1-4 µM
HGC-27 [29] = assay: Induction of DNA damage in human HGC-27 cells assessed as increase in p-ATM generation incubated for 48 hrs by Western blot analysis; assay type: functional, cell-based; details: DDE = dose-dependent effect
HGC-27 [30] = assay: Induction of ROS generation in human HGC-27 cells at 1 to 4 uM incubated for 24 hrs by flow cytometry analysis; assay type: functional, cell-based; details: dose 1-4 µM
HGC-27 [31] = assay: Induction of apoptosis in human HGC-27 cells assessed as increase in cleaved caspase 7 protein expression level at 1 to 4 uM incubated for 48 hrs by Western blot analysis; assay type: functional, cell-based; details: dose 1-4 µM
MGC-803 [32] = assay: Induction of DNA damage in human MGC-803 cells assessed as increase in gamma-H2AX generation incubated for 24 hrs by immunofluorescence analysis; assay type: functional, cell-based
[33] = Toxicity in BALB/c mouse xenografted with human MGC-803 cells assessed as effect on ALT level at 10 to 20 mg/kg, ip administered once every two days; assay type: organism-based; details: in vivo, dose 10-20 mg/kg
MGC-803 [34] = assay: Antitumor activity against human MGC-803 cells xenografted with BALB/c mouse assessed as reduction in tumor growth at 10 to 20 mg/kg, ip administered once every two days; assay type: functional, organism-based; details: dose 10-20 mg/kg
MGC-803 [35] = assay: Induction of DNA damage in human MGC-803 cells assessed as appearance of longer comet tail at 4 uM; assay type: functional, cell-based
HGC-27 [36] = assay: Induction of mitochondrial membrane depolarization in human HGC-27 cells incubated for 48 hrs by flow cytometry analysis; assay type: functional, cell-based; details: dose 1-4 µM, DDE = dose-dependent effect

pIC50 (MGC-803 [20]): 6.07
SMILES: Cc1ccc(NC2=CC(=O)c3nc4n(c3C2=O)[C@H]2OC[C@@H](O)[C@H]2OC4)cc1C
Activity (MGC-803 [1]): Dde
Activity (HGC-27 [2]): Tde
Activity (MGC-803 [3]): Active
Activity (HGC-27 [4]): Active
Activity (MGC-803 [5]): Dde
Activity (MGC-803 [6]): 23.5%
Activity (HGC-27 [7]): Dde
Activity (HGC-27 [8]): 54.5%
Activity (MGC-803 [9]): 29.2%
Activity (MGC-803 [10]): 33.6%
Activity (HGC-27 [11]): 8.8%
Activity (HGC-27 [12]): Dde
Activity (HGC-27 [13]): Active
Activity (HGC-27 [14]): Active
Activity (HGC-27 [15]): 33.3%
Activity [16]: Non-Toxic
Activity (HGC-27 [17]): 32.3%
Activity (HGC-27 [18]): Active
Activity (HGC-27 [19]): Dde
IC50 at 72 h [21]: 24.8 µM
Activity (HGC-27 [22]): 28%
Activity (HGC-27 [23]): 33.5%
Activity (HGC-27 [24]): Active
Activity (MGC-803 [25]): Active
Activity (HGC-27 [26]): Dde
Activity (MGC-803 [27]): 30.8%
Activity (MGC-803 [28]): Active
Activity (HGC-27 [29]): Dde
Activity (HGC-27 [30]): Active
Activity (HGC-27 [31]): Active
Activity (MGC-803 [32]): Active
Activity [33]: Non-Toxic
Activity (MGC-803 [34]): Active
Activity (MGC-803 [35]): Active
Activity (HGC-27 [36]): Dde
